Results as given in patent publication US20220323383A1, “SMALL-MOLECULAR ADJUVANTS AND IMPLEMENTATIONS THEREOF” (JAWAHARLAL NEHRU CENTRE FOR ADVANCED SCIENTIFIC RESEARCH, priority 2019, published 2022).
“And” between values parts separate entries of the source, which are not always exact repeats. Identical values can stand only once. Like-named read-outs stand apart in the source and are kept apart here.

What was measured:
Format in all cases: cell-based
A. baumannii R674 [1] = test: Chequerboard combination efficacy of adjuvant with antibiotics
Method: (§1) All the solvents were of reagent grade, which were distilled and dried before its use. All the reagents were purchased from Sigma-Aldrich, Alfa-Aesar, S.D. Fine, Avra and Spectrochem, and were used without further purification. Analytical thin layer chromatography (TLC) was performed on E. Merck TLC plates pre-coated with silica gel 60 F254 and visualization was carried out using UV light and Iodine. Column chromatography was performed on silica gel (60-120 mesh) using different ratio of chloroform and methanol solvent system. Nuclear magnetic resonance spectra were recorded on Bruker (AV-400) 400 MHz spectrometer in deuterated solvents. Mass spectra were obtained using 6538-UHD Accurate mass Q-TOF LC-MS instrument. For optical density measurement during bacteriology experiments, Tecan Infinite Pro series M200 Microplate Reader was used. Bacterial strains, A. baumannii (R674), P. aeruginosa (R590), E. coli (R3336) and K. pneumoniae (R3934) were used for the studies.
(§2) The combination efficacy with antibiotics from different classes and individual antibacterial activity of the synthesized adjuvants was evaluated against the above mentioned MDR and NDM-1 strains of Gram-negative bacteria. All the bacteria were grown in peptone. The bacterial samples were freeze dried and stored at −80° C. 3 μl of these stocks were added to 3 mL of peptone and the culture was grown for 6 h at 37° C. prior to the experiments.
(§3) All synthesized compounds were assayed for their antibacterial activity in combination with antibiotics in a modified chequerboard micro-dilution broth format. Stock solutions were made by serially diluting the compounds using autoclaved millipore water. The bacterial freeze dried stock samples were stored at −80° C. About 3 μL of these stocks were added to about 3 mL of the respective broth and the culture was grown for about 6 h at about 37° C. with prior to the experiments. This 6 h grown culture gives about 10^8 cfu/mL in case of A. baumannii R674, P. aeruginosa R590, E. coli R3336 and K. pneumoniae R3934 which were determined by spread plating method. This 6 h grown culture was diluted to give effective cell concentration of 10^5 cfu/mL, and then used for the chequerboard assay. Adjuvants and antibiotics were serially diluted in two-fold, in sterile millipore water. 25 μL of these serial dilutions of the antibiotics and 25 μL of compounds were added to the wells of 96 well plate followed by the addition of about 150 μL of bacterial solution (˜10^5 cfu/mL). The plates were then incubated at about 37° C., 150 rpm in the incubator and O.D at 600 nm was recorded at 24 h using TECAN (Infinite series, M200 pro) Plate Reader. The wells with similar OD as the media control contained the required concentration of the antibiotic and adjuvant for antibacterial efficacy. The potentiation ability of the adjuvants was determined by calculating the potentiation factor and the Fractional Inhibitory concentration (FIC) index. Fractional Inhibitory Concentration (FIC) is expressed as, FIC=[X]/MICX, where [X] is the lowest inhibitory concentration of antibiotic in the presence of the adjuvant. Whereas FIC index is expressed as, FICI=FICantibiotic+FICadjuvant. The values of FIC index give an insight about the nature of the combination. Potentiation factor which means fold-reduction in the MIC of the antibiotic, when used in combination with the adjuvant was also determined. Potentiation factor=[Minimum inhibitory concentration (MIC) of antibiotic in absence of adjuvant]/[MIC of antibiotic in presence of adjuvant]. […] The combination efficacies of adjuvants with various antibiotics are furnished in Table 1. It should be noted that various other resistant strains of bacteria (Gram-positive and Gram-negative) can be tested with a number of other antibiotics to check the potentiation capacity of the adjuvants.

human RBCs = test: Haemolytic activity; conditions: concentration at which 50% of human blood cells are lysed; 1 h at 37° C.
Method: Erythrocytes were isolated from freshly drawn, heparanized human blood and re-suspended to 5 vol % in PBS (pH 7.4). In a 96-well microtiter plate, 150 μl of erythrocyte suspension was added to 50 μl of serially diluted compound. Two controls were made, one without compound and other with 50 μl of 1 vol % solution of Triton X-100. The plate was incubated for 1 h at 37° C. The plate was then centrifuged at 3,500 rpm for 5 min, 100 μl of the supernatant from each well was transferred to a fresh 96-well microtiter plate, and A540 was measured. Percentage of hemolysis was determined as (A−A0)/(Atotal−A0)×100, where A is the absorbance of the test well, A0 the absorbance of the negative controls (without compound), and Atotal the absorbance of 100% hemolysis wells (with Triton X-100), all at 540 nm.
Toxicity studies of the compounds were done on freshly drawn human RBCs. Toxicity of the compounds were defined by their HC50 values (Table 2), i.e. the concentration of compound at which 50% of the blood cells are lysed.

A. baumannii R674 [2] = test: Individual antibacterial activity (MIC) of adjuvants; conditions: adjuvant alone; A. baumannii R674
Method: as §2, §3

P. aeruginosa R590 [3] = test: Chequerboard combination efficacy of adjuvant with antibiotics
Method: as §1, §2, §3

P. aeruginosa R590 [4] = test: Individual antibacterial activity (MIC) of adjuvants; conditions: adjuvant alone; P. aeruginosa R590
Method: as §2, §3

[5] = antibiotic Rifampicin, P. aeruginosa R590
[6] = antibiotic Tetracycline, P. aeruginosa R590

Compound	FICI (A. baumannii R674 [1]; antibiotic Rifampicin)	MIC of antibiotic in presence of adjuvant (A. baumannii R674 [1]; antibiotic Rifampicin) [µg/mL]	Potentiation factor (A. baumannii R674 [1]; antibiotic Rifampicin)	FICI (A. baumannii R674 [1]; antibiotic Tetracycline)	MIC of antibiotic in presence of adjuvant (A. baumannii R674 [1]; antibiotic Tetracycline) [µg/mL]	Potentiation factor (A. baumannii R674 [1]; antibiotic Tetracycline)	HC50 (human RBCs) [µg/mL]	MIC against clinical isolates of bacteria (A. baumannii R674 [2]) [µg/mL]	FICI (P. aeruginosa R590 [3]; [5])	MIC of antibiotic in presence of adjuvant (P. aeruginosa R590 [3]; [5]) [µg/mL]	Potentiation factor (P. aeruginosa R590 [3]; [5])	FICI (P. aeruginosa R590 [3]; [6])	MIC of antibiotic in presence of adjuvant (P. aeruginosa R590 [3]; [6]) [µg/mL]	Potentiation factor (P. aeruginosa R590 [3]; [6])	MIC against clinical isolates of bacteria (P. aeruginosa R590 [4]) [µg/mL]	FICI (P. aeruginosa R590 [3])	MIC of antibiotic in presence of adjuvant (P. aeruginosa R590 [3])
NCCCN(CCCN)C(=O)Cc1ccccc1.O=C(O)C(F)(F)F.O=C(O)C(F)(F)F [Compound 1, N,N-bis((3-amino)propyl)phenyl ethanamide bis(trifluoroacetate)]	<0.75	32	2	<0.5	64	2	>1024	>512	–	–	–	–	–	–	–	–	–
NCCCN(CCCN)C(=O)Cc1cccc2ccccc12.O=C(O)C(F)(F)F.O=C(O)C(F)(F)F [Compound 2, N,N-bis((3-amino)propyl)naphthyl ethanamide bis(trifluoroacetate)]	<0.375	8	8	<0.625	64	2	>1024	>512	<0.375	16	8	<0.5	64	4	>512	–	–
NCCCN(CCCN)C(=O)c1ccc(-c2ccccc2)cc1.O=C(O)C(F)(F)F.O=C(O)C(F)(F)F [Compound 3]	<0.5	16	4	–	>64	<2	>1024	>512	–	–	4	–	–	<4	>512	<0.5	32 µg/mL and >64 µg/mL
NCCCN(CCCN)C(=O)CC(c1ccccc1)c1ccccc1.O=C(O)C(F)(F)F.O=C(O)C(F)(F)F [Compound 4, N,N-bis((3-amino)propyl)3,3-diphenyl propanamide bis(trifluoroacetate)]	<0.26	1	64	<0.5	32	4	>1024	>512	<0.28	4	32	<0.5	64	4	>512	–	–
CC(C)(C)OC(=O)NC(Cc1c[nH]c2ccccc12)C(=O)N(CCCN)CCCN.O=C(O)C(F)(F)F.O=C(O)C(F)(F)F.O=C(O)C(F)(F)F (centres unmarked) [Compound 5, N,N-bis((3-amino)propyl) 2′-(Boc-amino), 3′-indolo propanamide tris(trifluoroacetate)]	<0.375	8	8	–	–	<2	>1024	>512	<0.3125	8	16	–	>64	<4	>512	–	–
NCCCN(CCCN)CC(=O)NC1C2CC3CC(C2)CC1C3.O=C(O)C(F)(F)F.O=C(O)C(F)(F)F.O=C(O)C(F)(F)F (centres unmarked) [Compound 6, N-(Adamantan-2-yl)-2-[N′,N′-{bis-(3-amino)propyl}amino] ethanamide tris(trifluoroacetate)]	<0.06	<0.25	>256	–	>64	<2	>1024	512	<0.06	<0.25	>512	–	>64	<4	512	–	–
NCCCC[C@H](N)C(=O)NCCCN(CCCNC(=O)[C@@H](N)CCCCN)C(=O)Cc1cccc2ccccc12 [Compound 7, N,N-bis-[(6-(^LLys)amido)propyl] naphthyl ethanamide tetrakis(trifluoroacetate)]	<0.25	8	8	<0.5	32	4	>1024	>512	<0.28	4	32	<0.5	64	4	>512	–	–
NCCCC[C@H](N)C(=O)NCCCN(CCCNC(=O)[C@@H](N)CCCCN)C(=O)CC(c1ccccc1)c1ccccc1 [Compound 8, N,N-bis-[(6-(^LLys)amido)propyl] 3,3-diphenyl propanamide tetrakis(trifluoroacetate)]	<0.19	4	16	–	>64	<2	>1024	>512	<0.14	2	64	<0.375	64	4	>512	–	–
NCCCC[C@H](N)C(=O)NCCCN(CCCNC(=O)[C@@H](N)CCCCN)CC(=O)NC1C2CC3CC(C2)CC1C3.O=C(O)C(F)(F)F.O=C(O)C(F)(F)F.O=C(O)C(F)(F)F.O=C(O)C(F)(F)F.O=C(O)C(F)(F)F (some centres unmarked) [Compound 9]	<0.14	1	64	<0.25	16	8	>1024	>512	<0.13	0.5	256	<0.19	16	16	>512	–	–
